From ChEMBL document CHEMBL1201862, “PubChem BioAssay data set” (2004)
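Assay format: 96-well plates, 48-hour exposure. Here, GI50 denotes the concentration required for 50% inhibition of growth.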 Activity calls are given as the source filed them. Rule as the data show it: active = GI50 up to about 1.1 µM and inactive = higher.

Columns and labels:
Test in all cases: NCI anticancer screen, dose series, 48 h
NCI-H226 = tested on: NCI-H226
NCI-H23 = tested on: NCI-H23
SNB-78 = tested on: SNB-78
DMS-114 = tested on: DMS-114
TK-10 = tested on: TK-10
SNB-19 = tested on: SNB-19
SN12C = tested on: SN12C
KM-20L2 = tested on: KM-20L2
UO-31 = tested on: UO-31
A549 = tested on: A549
CCRF-CEM = tested on: CCRF-CEM
EKVX = tested on: EKVX
HL-60 = tested on: HL-60
XF498 = tested on: XF498
NCI-H460 = tested on: NCI-H460
RXF 393 = tested on: RXF 393
HCC 2998 = tested on: HCC 2998
HCT-15 = tested on: HCT-15
OVCAR-3 = tested on: OVCAR-3
LXFL 529 = tested on: LXFL 529
HT-29 = tested on: HT-29
Malme-3M = tested on: Malme-3M
HOP-92 = tested on: HOP-92
IGROV-1 = tested on: IGROV-1
A498 = tested on: A498
SK-OV-3 = tested on: SK-OV-3
SK-MEL-28 = tested on: SK-MEL-28
OVCAR-4 = tested on: OVCAR-4
M14 = tested on: M14
SK-MEL-2 = tested on: SK-MEL-2
HCT-116 = tested on: HCT-116
SF-268 = tested on: SF-268
SNB-75 = tested on: SNB-75
SF-539 = tested on: SF-539
NCI-H522 = tested on: NCI-H522
UACC-62 = tested on: UACC-62
LOX IMVI = tested on: LOX IMVI
SW-620 = tested on: SW-620
M19-MEL = tested on: M19-MEL
DMS-273 = tested on: DMS-273
786-0 = tested on: 786-0
OVCAR-5 = tested on: OVCAR-5
MOLT-4 = tested on: MOLT-4
HOP-18 = tested on: HOP-18
RPMI-8226 = tested on: RPMI-8226
UACC-257 = tested on: UACC-257
COLO 205 = tested on: COLO 205
HOP-62 = tested on: HOP-62
OVCAR-8 = tested on: OVCAR-8
K562 = tested on: K562
SR = tested on: SR
DLD-1 = tested on: DLD-1
SF-295 = tested on: SF-295
KM12 = tested on: KM12
CAKI-1 = tested on: CAKI-1
ACHN = tested on: ACHN
U-251 = tested on: U-251
SK-MEL-5 = tested on: SK-MEL-5

With `COc1ccc(NC(=O)C2C(=O)N(c3ccc(OC)cc3)C(=O)/C2=N/O)cc1` (centres undefined) the GI50 (NCI-H226) was 23.8 µM (inactive), the GI50 (NCI-H23) was 43.4 µM (inactive) and the GI50 (SNB-78) was 46.8 µM (inactive). The GI50 (DMS-114) was 35.6 µM (inactive), the GI50 (TK-10) was 23.9 µM (inactive) and the GI50 (SNB-19) was 29.4 µM (inactive). For the same molecule, the GI50 (SN12C) was 26.4 µM (inactive), the GI50 (KM-20L2) was 48 µM (inactive) and the GI50 (UO-31) was 22.2 µM (inactive). For the same molecule, the GI50 (A549) was 33.9 µM (inactive), the GI50 (CCRF-CEM) was > 100 µM (inactive) and the GI50 (EKVX) was 32.2 µM (inactive). The GI50 (HL-60) was > 100 µM (inactive), the GI50 (XF498) was 14 µM (inactive) and the GI50 (NCI-H460) was 21.9 µM (inactive). For the same molecule, the GI50 (RXF 393) was 15.3 µM (inactive), the GI50 (HCC 2998) was 21 µM (inactive) and the GI50 (HCT-15) was over 100 µM. For the same molecule, the GI50 (OVCAR-3) was 24.7 µM (inactive), the GI50 (LXFL 529) was 25.2 µM (inactive) and the GI50 (HT-29) was 38.6 µM (inactive). For the same molecule, the GI50 (Malme-3M) was 20.4 µM (inactive), the GI50 (HOP-92) was 16.1 µM (inactive) and the GI50 (IGROV-1) was 40.1 µM (inactive). The GI50 (A498) was 30.7 µM (inactive), the GI50 (SK-OV-3) was 20.2 µM (inactive) and the GI50 (SK-MEL-28) was 37.8 µM (inactive). For the same molecule, the GI50 (OVCAR-4) was 17.2 µM (inactive), the GI50 (M14) was 34 µM (inactive) and the GI50 (SK-MEL-2) was 32.2 µM (inactive). For the same molecule, the GI50 (HCT-116) was 21.6 µM (inactive), the GI50 (SF-268) was 24.8 µM (inactive) and the GI50 (SNB-75) was 32.2 µM (inactive). For the same molecule, the GI50 (SF-539) was 19.6 µM (inactive), the GI50 (NCI-H522) was 22.7 µM (inactive) and the GI50 (UACC-62) was 21.8 µM (inactive). The GI50 (LOX IMVI) was 57.8 µM (inactive), the GI50 (SW-620) was > 61.9 µM (inactive) and the GI50 (M19-MEL) was 26.5 µM (inactive). For the same molecule, the GI50 (DMS-273) was 26.8 µM (inactive), the GI50 (786-0) was 20.1 µM (inactive) and the GI50 (OVCAR-5) was > 100 µM (inactive). For the same molecule, the GI50 (MOLT-4) was > 100 µM (inactive), the GI50 (HOP-18) was 17.9 µM (inactive) and the GI50 (RPMI-8226) was > 71.9 µM (inactive). The GI50 (UACC-257) was 41.6 µM (inactive), the GI50 (COLO 205) was > 100 µM (inactive) and the GI50 (HOP-62) was 23.5 µM (inactive). The GI50 (OVCAR-8) was 18 µM (inactive), the GI50 (K562) was > 100 µM (inactive) and the GI50 (SR) was > 100 µM (inactive). For the same molecule, the GI50 (DLD-1) was 64.4 µM (inactive), the GI50 (SF-295) was 26.4 µM (inactive) and the GI50 (KM12) was 23 µM (inactive). The GI50 (CAKI-1) was 32.7 µM (inactive), the GI50 (ACHN) was 21.8 µM (inactive) and the GI50 (U-251) was 22.3 µM (inactive).
In the case of `COc1nc(OC)nc(Sc2ccc(Sc3ccc(Sc4nc(OC)nc(OC)n4)cc3)cc2)n1`, the GI50 (NCI-H226) is reported as > 100 µM (inactive), the GI50 (NCI-H23) is reported as > 100 µM (inactive) and the GI50 (SNB-78) is reported as > 100 µM (inactive). The GI50 (DMS-114) was 24.1 µM (inactive), the GI50 (TK-10) was > 100 µM (inactive) and the GI50 (SNB-19) was > 100 µM (inactive). The GI50 (SN12C) was > 100 µM (inactive), the GI50 (KM-20L2) was > 100 µM (inactive) and the GI50 (UO-31) was > 100 µM (inactive). The GI50 (A549) was > 100 µM (inactive), the GI50 (CCRF-CEM) was > 100 µM (inactive) and the GI50 (EKVX) was > 100 µM (inactive). The GI50 (HL-60) was > 100 µM (inactive), the GI50 (XF498) was > 100 µM (inactive) and the GI50 (NCI-H460) was > 100 µM (inactive). The GI50 (RXF 393) was > 100 µM (inactive), the GI50 (HCC 2998) was > 100 µM (inactive) and the GI50 (HCT-15) was over 100 µM. The GI50 (SK-MEL-5) was > 100 µM (inactive), the GI50 (OVCAR-3) was > 100 µM (inactive) and the GI50 (LXFL 529) was > 100 µM (inactive). The GI50 (HT-29) was > 100 µM (inactive), the GI50 (Malme-3M) was > 100 µM (inactive) and the GI50 (HOP-92) was > 100 µM (inactive). The GI50 (IGROV-1) was > 100 µM (inactive), the GI50 (A498) was > 100 µM (inactive) and the GI50 (SK-OV-3) was > 100 µM (inactive). The GI50 (SK-MEL-28) was > 100 µM (inactive), the GI50 (OVCAR-4) was > 100 µM (inactive) and the GI50 (M14) was > 100 µM (inactive). For the same molecule, the GI50 (SK-MEL-2) was > 100 µM (inactive), the GI50 (HCT-116) was > 100 µM (inactive) and the GI50 (SF-268) was > 100 µM (inactive). For the same molecule, the GI50 (SNB-75) was > 100 µM (inactive), the GI50 (SF-539) was > 100 µM (inactive) and the GI50 (NCI-H522) was > 100 µM (inactive). The GI50 (UACC-62) was > 100 µM (inactive), the GI50 (LOX IMVI) was > 100 µM (inactive) and the GI50 (SW-620) was > 100 µM (inactive). The GI50 (M19-MEL) was > 100 µM (inactive), the GI50 (DMS-273) was > 100 µM (inactive) and the GI50 (786-0) was > 100 µM (inactive). The GI50 (OVCAR-5) was > 100 µM (inactive), the GI50 (MOLT-4) was > 100 µM (inactive) and the GI50 (HOP-18) was > 100 µM (inactive). The GI50 (RPMI-8226) was > 100 µM (inactive), the GI50 (UACC-257) was > 100 µM (inactive) and the GI50 (COLO 205) was > 100 µM (inactive). The GI50 (OVCAR-8) was > 100 µM (inactive), the GI50 (K562) was > 100 µM (inactive) and the GI50 (SR) was 7.52 µM (inactive). For the same molecule, the GI50 (DLD-1) was > 100 µM (inactive), the GI50 (SF-295) was > 100 µM (inactive) and the GI50 (KM12) was > 100 µM (inactive). The GI50 (CAKI-1) was > 100 µM (inactive), the GI50 (ACHN) was > 100 µM (inactive) and the GI50 (U-251) was > 100 µM (inactive).
